From the supplement of paper PMC11451515

System: NOMO1
Test: cell viability relative to DMSO control; higher = less cytotoxic
Conditions: 48 h
How it was run: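 Library compounds in DMSO were pin-dosed in an 11-point threefold series (47 μM to 0.79 nM) onto leukemia cells in 1536-well plates (5 μl). Plates held 500 cells/well of NOMO1 or SEM or 1000 cells/well of P12-Ichikawa, each adapted for at least four passages in each medium. Luminescence was read with CellTiter-Glo One after 48 h at 37°C. Viability means the per-plate percentage relative to DMSO wells, using cell-free wells as background.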

[1] = HPLM + 10% dialyzed FBS, 0.000781 µM
[2] = HPLM + 10% dialyzed FBS, 0.00234 µM
[3] = HPLM + 10% dialyzed FBS, 0.00702 µM
[4] = HPLM + 10% dialyzed FBS, 0.0211 µM
[5] = HPLM + 10% dialyzed FBS, 0.0632 µM
[6] = HPLM + 10% dialyzed FBS, 0.19 µM
[7] = HPLM + 10% dialyzed FBS, 0.569 µM
[8] = HPLM + 10% dialyzed FBS, 1.71 µM
[9] = HPLM + 10% dialyzed FBS, 5.12 µM
[10] = HPLM + 10% dialyzed FBS, 15.4 µM
[11] = HPLM + 10% dialyzed FBS, 46.1 µM
[12] = RPMI 5 mM glucose + 10% FBS, 0.000781 µM
[13] = RPMI 5 mM glucose + 10% FBS, 0.00234 µM
[14] = RPMI 5 mM glucose + 10% FBS, 0.00702 µM
[15] = RPMI 5 mM glucose + 10% FBS, 0.0211 µM
[16] = RPMI 5 mM glucose + 10% FBS, 0.0632 µM
[17] = RPMI 5 mM glucose + 10% FBS, 0.19 µM
[18] = RPMI 5 mM glucose + 10% FBS, 0.569 µM
[19] = RPMI 5 mM glucose + 10% FBS, 1.71 µM
[20] = RPMI 5 mM glucose + 10% FBS, 5.12 µM
[21] = RPMI 5 mM glucose + 10% FBS, 15.4 µM
[22] = RPMI 5 mM glucose + 10% FBS, 46.1 µM
[23] = RPMI 5 mM glucose + 10% dialyzed FBS, 0.000781 µM
[24] = RPMI 5 mM glucose + 10% dialyzed FBS, 0.00234 µM
[25] = RPMI 5 mM glucose + 10% dialyzed FBS, 0.00702 µM
[26] = RPMI 5 mM glucose + 10% dialyzed FBS, 0.0211 µM
[27] = RPMI 5 mM glucose + 10% dialyzed FBS, 0.0632 µM
[28] = RPMI 5 mM glucose + 10% dialyzed FBS, 0.19 µM
[29] = RPMI 5 mM glucose + 10% dialyzed FBS, 0.569 µM
[30] = RPMI 5 mM glucose + 10% dialyzed FBS, 1.71 µM
[31] = RPMI 5 mM glucose + 10% dialyzed FBS, 5.12 µM
[32] = RPMI 5 mM glucose + 10% dialyzed FBS, 15.4 µM
[33] = RPMI 5 mM glucose + 10% dialyzed FBS, 46.1 µM

Row | Compound | cell viability [1] | cell viability [2] | cell viability [3] | cell viability [4] | cell viability [5] | cell viability [6] | cell viability [7] | cell viability [8] | cell viability [9] | cell viability [10] | cell viability [11] | cell viability [12] | cell viability [13] | cell viability [14] | cell viability [15] | cell viability [16] | cell viability [17] | cell viability [18] | cell viability [19] | cell viability [20] | cell viability [21] | cell viability [22] | cell viability [23] | cell viability [24] | cell viability [25] | cell viability [26] | cell viability [27] | cell viability [28] | cell viability [29] | cell viability [30] | cell viability [31] | cell viability [32] | cell viability [33]
1 | CCN(CC)C(=S)SSC(=S)N(CC)CC | 97.9% | 112% | 135% | 130% | 131% | 121% | 147% | 132% | 5.58% | 46.8% | 2.75% | 104% | 112% | 119% | 120% | 129% | 110% | 127% | 127% | 4.7% | 12.4% | 3.34% | 114% | 120% | 131% | 122% | 123% | 128% | 131% | 120% | 6.51% | 5.46% | 2.56%
2 | C[C@@H](O)[C@@H]1[C@H]2[C@@H](C)\C(=C(/N2C1=O)C(=O)OCOC(=O)C(C)(C)C)SC3CN(C3)/C4=N/CCS4 | 93.2% | 93.2% | 103% | 111% | 110% | 113% | 105% | 102% | 68.2% | 60.8% | 38.4% | 92.3% | 102% | 113% | 111% | 101% | 112% | 101% | 110% | 109% | 116% | 104% | 87.8% | 106% | 103% | 119% | 111% | 126% | 115% | 120% | 100% | 84.5% | 77.7%
3 | C[C@H]1C[C@H]2[C@@H]3CCC4=CC(=O)C=C[C@]4(C)[C@@]3(F)[C@@H](O)C[C@]2(C)[C@@]1(O)C(=O)CO |  |  |  |  |  |  |  |  |  |  |  | 120% | 122% | 128% | 122% | 123% | 133% | 131% | 135% | 120% | 120% | 106% |  |  |  |  |  |  |  |  |  |  | 
4 | ClC1=CC(=CC=C1)N2CCN(CCCN3\N=C4\C=C/C=C\N4C3=O)CC2 |  |  |  |  |  |  |  |  |  |  |  | 113% | 121% | 123% | 137% | 126% | 137% | 142% | 147% | 137% | 141% | 137% |  |  |  |  |  |  |  |  |  |  | 
5 | CC(=O)OCC(=O)[C@@]12\N=C(C)/O[C@@H]1C[C@H]3[C@@H]4CCC/5=C/C(=O)/C=C\[C@]5(C)[C@H]4[C@@H](O)C[C@]23C | 107% | 102% | 109% | 130% | 133% | 137% | 122% | 128% | 105% | 121% | 86.6% | 94.3% | 106% | 94.6% | 105% | 108% | 106% | 107% | 113% | 107% | 98% | 99.6% | 94.1% | 96.1% | 102% | 99.2% | 105% | 117% | 109% | 113% | 109% | 104% | 91.8%
6 | CC1=CC=CC=C1CN2C(=O)C/3=C(/CCN(CC4=CC=CC=C4)C3)N\5CC\N=C25 |  |  |  |  |  |  |  |  |  |  |  | 109% | 118% | 121% | 124% | 134% | 113% | 116% | 119% | 59% | 20.1% | 21.4% | 132% | 118% | 122% | 126% | 120% | 122% | 133% | 86.6% | 69.9% | 25.9% | 23.6%
7 | N=C(N)NC(=O)c1nc(Cl)c(N)nc1N | 110% | 114% | 132% | 133% | 134% | 130% | 133% | 54.1% | 35.8% | 35% | 36.9% |  |  |  |  |  |  |  |  |  |  |  | 112% | 134% | 123% | 134% | 133% | 129% | 136% | 72.5% | 33.3% | 29.2% | 29.1%
8 | Cc1cc(Nc2nc(N[C@@H](C)c3ncc(F)cn3)ncc2Cl)n[nH]1 | 89.6% | 95% | 113% | 124% | 113% | 113% | 109% | 63.3% | 19.9% | 19.5% | 28.5% | 114% | 126% | 117% | 124% | 114% | 123% | 125% | 116% | 98.4% | 19.5% | 15.7% | 108% | 119% | 105% | 127% | 127% | 120% | 126% | 135% | 112% | 38.3% | 23.8%
9 | CC(C)(C)C(=O)OCOP(=O)(COCCn1cnc2c(N)ncnc21)OCOC(=O)C(C)(C)C | 86.9% | 99.5% | 93.6% | 108% | 88.3% | 62.2% | 68.2% | 33.9% | 32.2% | 18.9% | 2.01% | 109% | 96% | 98.2% | 98.6% | 70.3% | 61.4% | 44.4% | 19.9% | 15.8% | 9.1% | 2.21% | 101% | 93.6% | 91.9% | 93.7% | 78.5% | 66.9% | 47.7% | 28.6% | 14.9% | 14.2% | 2.41%
10 | CC(=O)C\1=C(/C)C2=CN=C(NC3=CC=C(C=N3)N4CCNCC4)N=C2N(C5CCCC5)C1=O |  |  |  |  |  |  |  |  |  |  |  | 123% | 118% | 103% | 113% | 136% | 110% | 105% | 96.7% | 98% | 87.1% | 68.8% | 113% | 114% | 111% | 112% | 107% | 112% | 96.3% | 79.1% | 80.9% | 68.6% | 60.1%
11 | Oc1ccc(/C=C/c2cc(O)cc(O)c2)cc1 | 108% | 112% | 115% | 111% | 107% | 114% | 92.4% | 117% | 97.5% | 50.1% | 10.4% | 109% | 98.8% | 111% | 105% | 98% | 102% | 99.8% | 107% | 95.3% | 103% | 15.1% | 89.7% | 106% | 98.1% | 104% | 103% | 105% | 99.2% | 97.4% | 102% | 83.4% | 18.4%
12 | COc1cc2c(Oc3ccc(NC(=O)C4(C(=O)Nc5ccc(F)cc5)CC4)cc3F)ccnc2cc1OCCCN1CCOCC1 | 74.7% | 83.2% | 79.3% | 92% | 89.5% | 83.1% | 84.3% | 61% | 63.4% | 28.5% | 4.74% | 80.8% | 86.3% | 91.7% | 94.6% | 85.8% | 85.1% | 86.8% | 72.8% | 41% | 36.9% | 4.62% | 81.2% | 75.3% | 84.8% | 93.8% | 85.6% | 72.1% | 80.9% | 46.5% | 43.3% | 29.6% | 5.96%
13 | COC[C@@H](NC(C)=O)C(=O)NCc1ccccc1 | 112% | 119% | 117% | 132% | 116% | 118% | 114% | 117% | 107% | 105% | 86.7% | 95.9% | 110% | 97% | 102% | 118% | 109% | 119% | 104% | 104% | 112% | 64.8% | 106% | 117% | 116% | 114% | 125% | 115% | 125% | 124% | 131% | 118% | 69.5%
14 | Oc1ccc(C2CCN(c3ccnc4ccccc34)CC2)cc1O | 101% | 107% | 115% | 101% | 123% | 124% | 113% | 123% | 94.1% | 82.9% | 55.6% | 108% | 109% | 97.5% | 101% | 107% | 123% | 108% | 120% | 98.9% | 95.7% | 48.6% | 91.9% | 99% | 97.9% | 83.8% | 104% | 96.4% | 103% | 109% | 111% | 98.1% | 70.9%
15 | OCc1ccc(-c2nn(Cc3ccccc3)c3ccccc23)o1 | 120% | 101% | 120% | 127% | 108% | 101% | 111% | 64.6% | 91.6% | 38.5% | 9% | 104% | 111% | 104% | 102% | 95.4% | 96.4% | 96.8% | 93.4% | 98.6% | 38% | 8.67% | 110% | 105% | 105% | 113% | 107% | 105% | 107% | 89.6% | 81.6% | 42.4% | 7.56%
16 | O=C(/C=C/c1c(C(=O)[O-])[nH]c2cc(Cl)cc(Cl)c12)Nc1ccccc1 | 112% | 115% | 116% | 116% | 99.9% | 117% | 118% | 110% | 113% | 112% | 108% | 90.5% | 99% | 99.5% | 95.1% | 101% | 116% | 107% | 107% | 107% | 124% | 107% | 110% | 109% | 114% | 126% | 126% | 120% | 115% | 120% | 111% | 127% | 118%
17 | Cn1cc(-c2ccc3nnc(C(F)(F)c4ccc5ncccc5c4)n3n2)cn1 | 115% | 99.1% | 97.5% | 107% | 101% | 106% | 105% | 101% | 95.4% | 103% | 69.3% | 110% | 106% | 135% | 109% | 107% | 106% | 99.6% | 94.9% | 106% | 96.6% | 87.2% | 87.3% | 98.4% | 111% | 97.8% | 99.2% | 98.6% | 119% | 108% | 99.5% | 96.2% | 81.3%
